Results taken from US20050074463A1, “Therapeutic vaccination method, mutated peptides of hiv reverse transciptase and their use for vaccination and diagnostic purposes” (Universite Pierre et Marie Curie-paris VI, priority 2001, published 2005).

Legend:
[1] = system: gamma-IFN-producing CD8 cells in PBMCs from patient 201#5; assay: ELISpot-γIFN assay, ex vivo recognition of epitope peptides by PBMCs; conditions: PBMCs from patient 201#5 treated with NRTIs and carrying RT mutation 41 (M>L), no prior stimulation
[2] = molecular target: Mutated peptide 33-41 of HIV-1 reverse transcriptase (mutation 41 M>L) (HIV-1)
[3] = molecular target: Wild-type peptide 33-41 of HIV-1 reverse transcriptase (HIV-1)

Substance | frequency of recognition (cells secreting γIFN), SFC/10^6 PBMCs [1] | SFC/10^6 PBMCs (ELISpot gamma-IFN) (SFC/10^6 PBMCs) [2] | SFC/10^6 PBMCs (ELISpot gamma-IFN) (SFC/10^6 PBMCs) [3]
ALVEICTEM [wild-type peptide 33-41] | 3 SFC/10^6 PBMCs | – | –
PBMCs from patient 201#5 (cells without a defined receptor) | – | 95 | 3
ALVEICTEL [mutated peptide 33-41] | 95 SFC/10^6 PBMCs | – | –
